# Publication PMC10178848, “Modulating fast skeletal muscle contraction protects skeletal muscle in animal models of Duchenne muscular dystrophy” (The Journal of Clinical Investigation, 2023)
# Test system: GRMD plasma proteins
# Type: in vivo, dog
# Conditions: Post-Treatment to GRMD baseline; Increased in GRMD
smiles,measurement,value
O=c1ccc(-c2cnc(OCC(F)(F)F)nc2)nn1Cc1cncc(F)c1 [EDG-5506],Change from GRMD Baseline (fraction): Apolipoprotein E (isoform E3) (APOE),0.08 fraction
same,Change from GRMD Baseline (fraction): Apolipoprotein E (isoform E4) (APOE),0.1456 fraction
same,Change from GRMD Baseline (fraction): Apoptosis regulator Bcl-2 (BCL2),0.0105 fraction
same,Change from GRMD Baseline (fraction): Artemin (ARTN),-0.0439 fraction
same,Change from GRMD Baseline (fraction): Arylsulfatase B (ARSB),-0.1402 fraction
same,Change from GRMD Baseline (fraction): B-cell receptor CD22 (CD22),-0.069 fraction
same,Change from GRMD Baseline (fraction): Baculoviral IAP repeat-containing protein 5 (BIRC5),0.0116 fraction
same,Change from GRMD Baseline (fraction): Basal Cell Adhesion Molecule (BCAM),-0.0408 fraction
same,Change from GRMD Baseline (fraction): Bcl-2-like protein 1 (BCL2L1),0.0111 fraction
same,Change from GRMD Baseline (fraction): Bone sialoprotein 2 (IBSP),-0.0621 fraction
same,Change from GRMD Baseline (fraction): C-C motif chemokine 13 (CCL13),-0.0609 fraction
same,Change from GRMD Baseline (fraction): C-C motif chemokine 23 (CCL23),-0.0197 fraction
same,Change from GRMD Baseline (fraction): CCAAT/enhancer-binding protein beta (CEBPB),-0.0884 fraction
same,Change from GRMD Baseline (fraction): CD59 glycoprotein (CD59),0.0101 fraction
same,Change from GRMD Baseline (fraction): Calcineurin (PPP3CA PPP3R1),-0.1169 fraction
same,Change from GRMD Baseline (fraction): Calcineurin subunit B type 1 (PPP3R1),0.0394 fraction
same,Change from GRMD Baseline (fraction): Calcium/calmodulin-dependent protein kinase type 1 (CAMK1),-0.0409 fraction
same,Change from GRMD Baseline (fraction): Calcium/calmodulin-dependent protein kinase type 1D (CAMK1D),-0.0326 fraction
same,Change from GRMD Baseline (fraction): Calcium/calmodulin-dependent protein kinase type II subunit alpha (CAMK2A),-0.2874 fraction
same,Change from GRMD Baseline (fraction): Calcium/calmodulin-dependent protein kinase type II subunit beta (CAMK2B),-0.2753 fraction
same,Change from GRMD Baseline (fraction): Calcium/calmodulin-dependent protein kinase type II subunit delta (CAMK2D),-0.216 fraction
same,Change from GRMD Baseline (fraction): Calpain I (CAPN1 CAPNS1),0.0953 fraction
same,Change from GRMD Baseline (fraction): Calpastatin (CAST),-0.0561 fraction
same,Change from GRMD Baseline (fraction): Carbonic anhydrase 3 (CA3),-0.1807 fraction
same,Change from GRMD Baseline (fraction): Cardiotrophin-1 (CTF1),-0.0345 fraction
same,Change from GRMD Baseline (fraction): Catalase (CAT),-0.0112 fraction
same,Change from GRMD Baseline (fraction): Choline/ethanolamine kinase (CHKB),-0.0392 fraction
same,Change from GRMD Baseline (fraction): Chymase (CMA1),-0.0173 fraction
same,Change from GRMD Baseline (fraction): Clusterin (CLU),0.1057 fraction
same,Change from GRMD Baseline (fraction): Complement component C6 (C6),0.2667 fraction
same,Change from GRMD Baseline (fraction): Complement component C8 (C8A C8B C8G),0.004 fraction
same,Change from GRMD Baseline (fraction): Complement factor D (CFD),0.0267 fraction
same,Change from GRMD Baseline (fraction): Creatine kinase M-type (CKM),-0.092 fraction
same,Change from GRMD Baseline (fraction): Creatine kinase M-type:Creatine kinase B-type heterodimer (CKB CKM),-0.1124 fraction
same,Change from GRMD Baseline (fraction): Cyclin-dependent kinase inhibitor 1B (CDKN1B),-0.1243 fraction
same,Change from GRMD Baseline (fraction): Cysteine and glycine-rich protein 3 (CSRP3),-0.1208 fraction
same,Change from GRMD Baseline (fraction): Cytochrome c (CYCS),-0.3895 fraction
same,Change from GRMD Baseline (fraction): DNA repair protein RAD51 homolog 1 (RAD51),0.0454 fraction
same,Change from GRMD Baseline (fraction): Desmoglein-1 (DSG1),0.0063 fraction
same,Change from GRMD Baseline (fraction): Dickkopf-like protein 1 (DKKL1),-0.0126 fraction
same,Change from GRMD Baseline (fraction): Down syndrome cell adhesion molecule (DSCAM),-0.0254 fraction
same,Change from GRMD Baseline (fraction): Dual specificity mitogen-activated protein kinase kinase 1 (MAP2K1),-0.2424 fraction
same,Change from GRMD Baseline (fraction): Dual specificity protein phosphatase 3 (DUSP3),-0.1403 fraction
same,Change from GRMD Baseline (fraction): Dynein light chain roadblock-type 1 (DYNLRB1),-0.3202 fraction
same,Change from GRMD Baseline (fraction): Ectonucleoside triphosphate diphosphohydrolase 1 (ENTPD1),-0.0389 fraction
same,Change from GRMD Baseline (fraction): Endothelin-converting enzyme 1 (ECE1),-0.0078 fraction
same,Change from GRMD Baseline (fraction): Ephrin type-A receptor 1 (EPHA1),-0.0034 fraction
same,Change from GRMD Baseline (fraction): Ephrin type-B receptor 6 (EPHB6),0.0412 fraction
same,Change from GRMD Baseline (fraction): Epidermal growth factor (EGF),-0.0427 fraction
same,Change from GRMD Baseline (fraction): Epidermal growth factor receptor variant III (EGFR),-0.0407 fraction
same,Change from GRMD Baseline (fraction): Erythropoietin receptor (EPOR),-0.0103 fraction
same,Change from GRMD Baseline (fraction): Estrogen receptor (ESR1),-0.0238 fraction
same,Change from GRMD Baseline (fraction): Eukaryotic translation initiation factor 4H (EIF4H),-0.3775 fraction
same,Change from GRMD Baseline (fraction): Eukaryotic translation initiation factor 4 gamma 2 (EIF4G2),-0.2701 fraction
same,Change from GRMD Baseline (fraction): Extracellular matrix protein 1 (ECM1),0.014 fraction
same,Change from GRMD Baseline (fraction): Fibroblast growth factor 8 isoform B (FGF8),-0.0376 fraction
same,Change from GRMD Baseline (fraction): Fibroblast growth factor 9 (FGF9),-0.0507 fraction
same,Change from GRMD Baseline (fraction): Fibronectin Fragment 4 (FN1),-0.0265 fraction
same,Change from GRMD Baseline (fraction): Follistatin (FST),-0.0231 fraction
same,Change from GRMD Baseline (fraction): Fractalkine (CX3CL1),0.0106 fraction
